Reference: ChEMBL document CHEMBL1153694, “Non-hinge-binding pyrazolo[1,5-a]pyrimidines as potent B-Raf kinase inhibitors” (Bioorg Med Chem Lett, 2009)

Legend:
[1] = target: Serine/threonine-protein kinase B-raf (Homo sapiens, UniProt P15056); test: Inhibition of human recombinant B-Raf expressed in Sf9 cells
[2] = Cytotoxicity against human HT-29 cells expressing B-Raf mutant
WM-266-4 (Homo sapiens) [3] = test: Cytotoxicity against human WM266.4 cells expressing B-Raf mutant
in vitro = settings: rat, liver microsomes
WM-266-4 (Homo sapiens) [4] = test: Cytotoxicity against human WM-266-4 cells expressing B-Raf mutant
[5] = Inhibition of CAMK2
[6] = target: Cyclin-dependent kinase 2 (Homo sapiens, UniProt P24941); test: Inhibition of CDK2
[7] = target: Protein kinase C alpha type (Homo sapiens, UniProt P17252); test: Inhibition of PKCalpha
[8] = Inhibition of PKA
[9] = target: Mitogen-activated protein kinase 8 (Homo sapiens, UniProt P45983); test: Inhibition of JNK1
[10] = target: Phosphatidylinositol 4,5-bisphosphate 3-kinase catalytic subunit alpha isoform (Homo sapiens, UniProt P42336); test: Inhibition of PI3Kalpha
[11] = target: Serine/threonine-protein kinase PLK1 (Homo sapiens, UniProt P53350); test: Inhibition of PLK1
[12] = target: Cyclin-dependent kinase 4 (Homo sapiens, UniProt P11802); test: Inhibition of CDK4
[13] = target: T1, Inhibitor of nuclear factor kappa-B kinase subunit beta (Homo sapiens, UniProt O14920); test: Inhibition of IKK-beta
T1 sequence (O14920 whole entry): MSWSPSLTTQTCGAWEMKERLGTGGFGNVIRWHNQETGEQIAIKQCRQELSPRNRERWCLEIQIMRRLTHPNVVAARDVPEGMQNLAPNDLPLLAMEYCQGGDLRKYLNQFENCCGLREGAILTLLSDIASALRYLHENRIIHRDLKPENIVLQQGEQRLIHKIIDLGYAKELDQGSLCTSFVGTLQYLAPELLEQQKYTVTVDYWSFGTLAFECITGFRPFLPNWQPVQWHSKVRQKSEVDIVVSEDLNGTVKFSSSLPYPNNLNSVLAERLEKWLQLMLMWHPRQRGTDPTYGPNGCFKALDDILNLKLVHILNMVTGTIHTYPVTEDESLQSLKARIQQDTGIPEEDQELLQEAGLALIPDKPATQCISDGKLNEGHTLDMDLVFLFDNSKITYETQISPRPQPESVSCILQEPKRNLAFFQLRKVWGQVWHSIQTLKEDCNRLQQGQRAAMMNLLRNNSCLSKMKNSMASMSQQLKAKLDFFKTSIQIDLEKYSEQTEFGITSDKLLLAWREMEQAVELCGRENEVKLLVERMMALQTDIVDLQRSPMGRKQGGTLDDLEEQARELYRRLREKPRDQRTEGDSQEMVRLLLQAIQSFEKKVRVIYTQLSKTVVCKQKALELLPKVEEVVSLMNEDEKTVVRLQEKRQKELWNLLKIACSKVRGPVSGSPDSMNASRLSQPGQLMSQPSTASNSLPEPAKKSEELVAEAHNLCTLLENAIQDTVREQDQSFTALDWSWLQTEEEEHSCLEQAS

[14] = target: Mitogen-activated protein kinase 14 (Homo sapiens, UniProt Q16539); test: Inhibition of p38alpha
[15] = target: T2, Dual specificity mitogen-activated protein kinase kinase 6 (Homo sapiens, UniProt P52564); test: Inhibition of MKK6
T2 sequence (P52564 whole entry): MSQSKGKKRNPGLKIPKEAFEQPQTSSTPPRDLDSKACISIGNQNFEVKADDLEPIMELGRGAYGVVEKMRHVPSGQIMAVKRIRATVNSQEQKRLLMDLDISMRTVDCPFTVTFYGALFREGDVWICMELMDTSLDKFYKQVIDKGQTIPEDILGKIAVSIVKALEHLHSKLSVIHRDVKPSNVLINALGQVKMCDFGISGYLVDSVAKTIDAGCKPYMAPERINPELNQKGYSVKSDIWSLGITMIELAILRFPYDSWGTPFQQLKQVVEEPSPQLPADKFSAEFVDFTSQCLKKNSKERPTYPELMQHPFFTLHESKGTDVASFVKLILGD

[16] = target: MAP kinase-activated protein kinase 2 (Homo sapiens, UniProt P49137); test: Inhibition of MK2
[17] = target: Proto-oncogene tyrosine-protein kinase Src (Homo sapiens, UniProt P12931); test: Inhibition of SRC
[18] = target: Ribosomal protein S6 kinase beta-1 (Homo sapiens, UniProt P23443); test: Inhibition of p70S6K
Sequence of Ribosomal protein S6 kinase beta-1 (P23443 whole entry): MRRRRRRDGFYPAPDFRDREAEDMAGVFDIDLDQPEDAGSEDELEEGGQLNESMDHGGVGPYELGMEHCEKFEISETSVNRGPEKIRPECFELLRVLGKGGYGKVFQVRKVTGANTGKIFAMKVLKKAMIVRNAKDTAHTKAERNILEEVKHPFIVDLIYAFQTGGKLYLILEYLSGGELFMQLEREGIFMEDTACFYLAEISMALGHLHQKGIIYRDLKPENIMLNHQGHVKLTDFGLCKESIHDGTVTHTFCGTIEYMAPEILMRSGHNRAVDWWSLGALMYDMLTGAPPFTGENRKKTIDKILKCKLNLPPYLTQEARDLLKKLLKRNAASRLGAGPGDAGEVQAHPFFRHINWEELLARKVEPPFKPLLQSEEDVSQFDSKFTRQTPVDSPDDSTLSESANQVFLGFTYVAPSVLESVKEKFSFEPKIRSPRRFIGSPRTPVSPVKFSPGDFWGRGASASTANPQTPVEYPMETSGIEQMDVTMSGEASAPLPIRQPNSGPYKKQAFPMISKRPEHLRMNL

Sequence of Serine/threonine-protein kinase B-raf (P15056 whole entry): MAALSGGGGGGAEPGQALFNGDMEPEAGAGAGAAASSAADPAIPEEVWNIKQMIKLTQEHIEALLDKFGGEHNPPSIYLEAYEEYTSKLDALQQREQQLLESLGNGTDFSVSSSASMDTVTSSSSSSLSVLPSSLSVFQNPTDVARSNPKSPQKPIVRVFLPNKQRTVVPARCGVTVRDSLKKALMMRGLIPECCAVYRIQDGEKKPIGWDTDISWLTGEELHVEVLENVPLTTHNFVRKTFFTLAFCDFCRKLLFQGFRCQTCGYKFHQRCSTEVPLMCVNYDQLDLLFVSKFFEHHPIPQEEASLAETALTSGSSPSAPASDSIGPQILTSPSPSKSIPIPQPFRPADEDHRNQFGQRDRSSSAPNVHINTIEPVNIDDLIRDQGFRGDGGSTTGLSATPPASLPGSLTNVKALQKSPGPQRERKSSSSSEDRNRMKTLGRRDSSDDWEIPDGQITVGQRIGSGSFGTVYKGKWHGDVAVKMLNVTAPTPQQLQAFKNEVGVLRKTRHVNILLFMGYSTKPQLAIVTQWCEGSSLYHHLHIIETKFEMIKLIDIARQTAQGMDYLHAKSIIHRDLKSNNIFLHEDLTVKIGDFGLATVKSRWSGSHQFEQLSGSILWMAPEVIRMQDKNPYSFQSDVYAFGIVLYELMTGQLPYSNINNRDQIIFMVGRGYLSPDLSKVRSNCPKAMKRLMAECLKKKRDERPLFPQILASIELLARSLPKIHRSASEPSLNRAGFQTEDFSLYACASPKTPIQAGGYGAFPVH
Sequence of Proto-oncogene tyrosine-protein kinase Src (P12931 2-536 limits assumed): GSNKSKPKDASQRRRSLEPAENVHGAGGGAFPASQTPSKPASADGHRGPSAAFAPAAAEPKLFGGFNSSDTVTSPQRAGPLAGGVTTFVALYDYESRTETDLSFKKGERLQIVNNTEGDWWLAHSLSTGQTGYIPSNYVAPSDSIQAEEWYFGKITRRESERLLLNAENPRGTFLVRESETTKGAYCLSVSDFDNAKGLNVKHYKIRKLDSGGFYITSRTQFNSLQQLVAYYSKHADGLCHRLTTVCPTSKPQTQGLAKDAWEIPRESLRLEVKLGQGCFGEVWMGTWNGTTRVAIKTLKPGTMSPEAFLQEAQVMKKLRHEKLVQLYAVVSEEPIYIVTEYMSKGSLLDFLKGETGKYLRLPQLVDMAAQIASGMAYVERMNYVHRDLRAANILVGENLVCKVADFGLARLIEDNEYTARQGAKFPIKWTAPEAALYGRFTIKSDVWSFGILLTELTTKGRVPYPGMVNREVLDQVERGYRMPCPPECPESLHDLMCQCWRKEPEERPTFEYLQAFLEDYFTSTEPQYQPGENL
Sequence of Phosphatidylinositol 4,5-bisphosphate 3-kinase catalytic subunit alpha isoform (P42336 whole entry, canonical isoform): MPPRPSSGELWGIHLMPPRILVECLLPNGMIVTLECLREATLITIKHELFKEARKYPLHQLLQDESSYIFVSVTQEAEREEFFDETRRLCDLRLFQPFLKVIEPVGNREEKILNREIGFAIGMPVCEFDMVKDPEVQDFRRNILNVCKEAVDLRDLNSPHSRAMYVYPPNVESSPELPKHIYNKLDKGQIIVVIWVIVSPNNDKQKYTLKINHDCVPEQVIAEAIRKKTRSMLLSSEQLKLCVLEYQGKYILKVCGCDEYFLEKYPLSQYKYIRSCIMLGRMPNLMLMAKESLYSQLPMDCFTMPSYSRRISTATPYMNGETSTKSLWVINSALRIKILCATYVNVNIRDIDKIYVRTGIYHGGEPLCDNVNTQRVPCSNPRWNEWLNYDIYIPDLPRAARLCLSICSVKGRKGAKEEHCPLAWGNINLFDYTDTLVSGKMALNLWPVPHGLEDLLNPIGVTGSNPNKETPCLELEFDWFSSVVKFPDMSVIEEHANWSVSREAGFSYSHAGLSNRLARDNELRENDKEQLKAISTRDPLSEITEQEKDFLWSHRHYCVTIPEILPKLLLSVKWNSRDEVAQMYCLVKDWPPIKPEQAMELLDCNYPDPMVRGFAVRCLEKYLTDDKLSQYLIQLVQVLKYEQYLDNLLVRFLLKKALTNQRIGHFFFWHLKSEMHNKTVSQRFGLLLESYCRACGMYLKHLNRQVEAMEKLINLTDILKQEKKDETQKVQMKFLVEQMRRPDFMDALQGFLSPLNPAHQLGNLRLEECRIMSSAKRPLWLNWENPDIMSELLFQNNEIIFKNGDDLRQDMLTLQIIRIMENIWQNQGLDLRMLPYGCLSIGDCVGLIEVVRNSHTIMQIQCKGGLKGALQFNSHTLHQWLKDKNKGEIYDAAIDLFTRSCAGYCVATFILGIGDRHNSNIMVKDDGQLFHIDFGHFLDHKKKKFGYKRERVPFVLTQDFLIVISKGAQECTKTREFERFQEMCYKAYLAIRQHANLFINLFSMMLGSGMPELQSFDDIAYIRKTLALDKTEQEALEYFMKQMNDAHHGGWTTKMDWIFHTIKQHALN
Sequence of Mitogen-activated protein kinase 14 (Q16539 whole entry): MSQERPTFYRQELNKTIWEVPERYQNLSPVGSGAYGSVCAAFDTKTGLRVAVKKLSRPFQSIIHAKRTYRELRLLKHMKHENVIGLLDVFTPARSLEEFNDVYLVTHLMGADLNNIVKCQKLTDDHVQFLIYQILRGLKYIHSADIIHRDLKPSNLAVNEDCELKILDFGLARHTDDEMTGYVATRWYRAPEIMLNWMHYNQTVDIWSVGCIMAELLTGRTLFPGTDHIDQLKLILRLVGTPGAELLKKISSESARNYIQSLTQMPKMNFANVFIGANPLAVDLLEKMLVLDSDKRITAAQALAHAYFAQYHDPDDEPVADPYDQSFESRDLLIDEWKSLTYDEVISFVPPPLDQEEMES
Sequence of Serine/threonine-protein kinase PLK1 (P53350 whole entry): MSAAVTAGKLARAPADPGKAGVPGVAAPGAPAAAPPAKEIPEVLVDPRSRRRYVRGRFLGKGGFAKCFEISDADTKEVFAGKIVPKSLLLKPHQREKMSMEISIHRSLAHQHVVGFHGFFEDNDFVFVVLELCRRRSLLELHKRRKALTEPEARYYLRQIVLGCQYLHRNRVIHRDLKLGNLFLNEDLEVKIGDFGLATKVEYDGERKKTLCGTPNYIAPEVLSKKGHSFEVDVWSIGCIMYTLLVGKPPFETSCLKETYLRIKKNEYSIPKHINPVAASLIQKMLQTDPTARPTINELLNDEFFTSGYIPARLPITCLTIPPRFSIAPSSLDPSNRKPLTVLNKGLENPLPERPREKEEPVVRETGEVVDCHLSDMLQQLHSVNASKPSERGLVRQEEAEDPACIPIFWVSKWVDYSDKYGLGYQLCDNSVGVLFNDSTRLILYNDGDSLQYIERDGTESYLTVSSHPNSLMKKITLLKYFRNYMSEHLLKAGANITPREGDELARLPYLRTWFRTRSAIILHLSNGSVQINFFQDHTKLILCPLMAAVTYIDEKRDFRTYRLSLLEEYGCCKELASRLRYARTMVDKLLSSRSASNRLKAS
Sequence of MAP kinase-activated protein kinase 2 (P49137 whole entry): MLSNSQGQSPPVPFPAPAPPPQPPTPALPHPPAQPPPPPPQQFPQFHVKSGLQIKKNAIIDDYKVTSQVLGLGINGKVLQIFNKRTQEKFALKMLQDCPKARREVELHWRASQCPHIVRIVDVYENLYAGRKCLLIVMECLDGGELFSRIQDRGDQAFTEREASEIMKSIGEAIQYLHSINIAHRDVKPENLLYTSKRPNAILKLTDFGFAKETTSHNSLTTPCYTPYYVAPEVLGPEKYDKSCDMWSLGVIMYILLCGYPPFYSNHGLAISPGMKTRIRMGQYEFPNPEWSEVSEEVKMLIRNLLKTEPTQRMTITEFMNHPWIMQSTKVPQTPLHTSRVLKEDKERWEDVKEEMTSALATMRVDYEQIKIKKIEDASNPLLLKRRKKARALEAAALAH

Compound | IC50 [1] [nM] | IC50 [2] [nM] | IC50 (WM-266-4 (Homo sapiens) [3]) [µM] | further results
CN1CCN(c2ccc(-c3cnn4c(-c5cc(NC(=O)c6cccc(C(F)(F)F)c6)ccc5F)ccnc34)cn2)CC1 | 30 | 630 |  | 
COCCOCC(=O)Nc1ccc(-c2cnn3c(-c4cccc(NC(=O)c5cccc(C(F)(F)F)c5)c4)ccnc23)cc1 | 139 | 3900 | > 10 | 
CN(C)CC(=O)Nc1ccc(-c2cnn3c(-c4cccc(NC(=O)c5cccc(C(F)(F)F)c5)c4)ccnc23)cc1 | 34 | 770 |  | 
CN(C)CC(=O)Nc1cccc(-c2cnn3c(-c4cccc(NC(=O)c5cccc(C(F)(F)F)c5)c4)ccnc23)c1 |  | 800 |  | 
CN1CCN(Cc2ccc(-c3cnn4c(-c5cccc(NC(=O)c6cccc(C(F)(F)F)c6)c5)ccnc34)cc2)CC1 | 38 | 700 |  | half-life (in vitro): 3 min
CN1CCN(c2ccc(-c3cnn4c(-c5cccc(NC(=O)c6cccc(C(F)(F)F)c6)c5)ccnc34)cn2)CC1 | 44 | 310 |  | 
CCN1CCN(Cc2cc(-c3cnn4c(-c5cccc(NC(=O)c6cccc(C(F)(F)F)c6)c5)ccnc34)co2)CC1 | 219 | 1700 | 2.9 | 
CN1CCN(CCCC#Cc2cnn3c(-c4cccc(NC(=O)c5cccc(C(F)(F)F)c5)c4)ccnc23)CC1 |  | 2600 | 1.4 | half-life (in vitro): 3 min
CN(C)c1ccc(-c2cnn3c(-c4cccc(NC(=O)c5cccc(C(F)(F)F)c5)c4)ccnc23)cc1 | 308 |  | > 10 | 
COc1ccc(NC(=O)c2cccc(C(F)(F)F)c2)cc1-c1ccnc2c(-c3cn[nH]c3)cnn12 | 98 | 2900 |  | 
O=C(Nc1ccc(F)c(-c2ccnc3c(-c4cn[nH]c4)cnn23)c1)c1cccc(C(F)(F)F)c1 | 18 | 2800 |  | 
O=C(Nc1ccc(Cl)c(-c2ccnc3c(-c4cn[nH]c4)cnn23)c1)c1cccc(C(F)(F)F)c1 | 42 | 2900 |  | 
O=C(Nc1cccc(-c2ccnc3c(C#CCCCN4CCOCC4)cnn23)c1)c1cccc(C(F)(F)F)c1 |  | 3500 | 5.5 | half-life (in vitro): > 30 min
O=C(Nc1cccc(-c2ccnc3c(-c4cn[nH]c4)cnn23)c1)c1cccc(C(F)(F)F)c1 |  | 2800 |  | 
O=C(Nc1cccc(-c2ccnc3c(-c4cnn(CCN5CCCC5)c4)cnn23)c1)c1cccc(C(F)(F)F)c1 |  | 2800 | 3.3 | half-life (in vitro): 26 min
O=C(Nc1cccc(-c2ccnc3c(-c4coc(CN5CCCC5)c4)cnn23)c1)c1cccc(C(F)(F)F)c1 |  | 2200 | 3.2 | 
NC(=O)c1cccc(-c2cnn3c(-c4cccc(NC(=O)c5cccc(C(F)(F)F)c5)c4)ccnc23)c1 |  | 3200 |  | IC50 (WM-266-4 (Homo sapiens) [4]): 3.7 µM
CN(C)Cc1ccc(-c2cnn3c(-c4cccc(NC(=O)c5cccc(C(F)(F)F)c5)c4)ccnc23)cc1 |  | 780 |  | IC50 [5]: 822 nM; IC50 [6]: > 2000 nM; IC50 [7]: > 2000 nM; IC50 [8]: > 2000 nM; IC50 [9]: > 2000 nM; IC50 [10]: > 2000 nM; IC50 [11]: > 2000 nM; IC50 [12]: > 2000 nM; IC50 [13]: > 2000 nM; half-life (in vitro): 6 min; IC50 [14]: 216 nM; IC50 [15]: > 2000 nM; IC50 [16]: > 2000 nM; IC50 [17]: > 2000 nM; IC50 [18]: > 2000 nM
O=C(Nc1cccc(-c2ccnc3c(-c4ccc(CN5CCCC5)cc4)cnn23)c1)c1cccc(C(F)(F)F)c1 | 20 | 650 |  | half-life (in vitro): 27 min
O=C(Nc1cccc(-c2ccnc3c(-c4cccnc4)cnn23)c1)c1cccc(C(F)(F)F)c1 | 113 |  |  | 
Nc1ccc(-c2cnn3c(-c4cccc(NC(=O)c5cccc(C(F)(F)F)c5)c4)ccnc23)cn1 |  | 2400 | 3.4 | 
CN(C)CCNc1ccc(-c2cnn3c(-c4cccc(NC(=O)c5cccc(C(F)(F)F)c5)c4)ccnc23)cn1 |  | 460 |  | 
CN(C)CCc1ccc(-c2cnn3c(-c4cccc(NC(=O)c5cccc(C(F)(F)F)c5)c4)ccnc23)cc1 |  | 730 | 0.74 | 
CN(C)Cc1ccccc1-c1cnn2c(-c3cccc(NC(=O)c4cccc(C(F)(F)F)c4)c3)ccnc12 |  | 2900 | 2.9 | 
CN(C)Cc1cccc(-c2cnn3c(-c4cccc(NC(=O)c5cccc(C(F)(F)F)c5)c4)ccnc23)c1 |  | 800 |  | 
O=C(Nc1cccc(-c2ccnc3c(-c4cnc(N5CCOCC5)nc4)cnn23)c1)c1cccc(C(F)(F)F)c1 | 941 |  |  | 
CN(C)CCc1ccccc1-c1cnn2c(-c3cccc(NC(=O)c4cccc(C(F)(F)F)c4)c3)ccnc12 |  | 840 |  | 
CN(C)CCc1cccc(-c2cnn3c(-c4cccc(NC(=O)c5cccc(C(F)(F)F)c5)c4)ccnc23)c1 |  | 650 |  | 
